# From ChEMBL document CHEMBL1145390, “Synthesis and preliminary biological characterization of new semisynthetic derivatives of ramoplanin” (J Med Chem, 2007)
# Experiments:
# [1] = test system: Streptococcus pyogenes; assay: Antibacterial activity against Streptococcus pyogenes C203 after 24 hrs by broth microdilution method; type: functional; settings: C203, 24 h, read-out: MIC
# [2] = test system: Candida albicans; assay: Antifungal activity against Candida albicans SKF-2270 after 24 hrs by broth microdilution method; type: functional; settings: read-out: MIC
# [3] = test system: Staphylococcus aureus; assay: Antibacterial activity against vancomycin-intermediate resistant Staphylococcus aureus clinical isolate after 24 hrs by broth microdilution method; type: functional
# [4] = test system: Enterococcus faecium; assay: Antibacterial activity against vancomycin A-resistant Enterococcus faecium clinical isolate in presence of 30% bovine serum after 24 hrs by broth microdilution method; type: functional
# [5] = test system: Escherichia coli; assay: Antibacterial activity against Escherichia coli SKF-12140 after 24 hrs by broth microdilution method; type: functional; settings: read-out: MIC
# [6] = Toxicity assessed as hemolysis in erythrocytes at 1200 mg/L; type: cell-based, Erythrocyte; settings: human, read-out: Activity
# [7] = test system: Enterococcus faecalis; assay: Antibacterial activity against vancomycin-resistant Enterococcus faecalis in presence of 30% bovine serum after 24 hrs by broth microdilution method; type: functional
# [8] = Toxicity assessed as hemolysis in erythrocytes at 300 mg/L; type: cell-based, Erythrocyte; settings: human, read-out: Activity
# [9] = test system: Enterococcus faecalis; assay: Antibacterial activity against Enterococcus faecalis after 24 hrs by broth microdilution method; type: functional; settings: read-out: MIC
# [10] = test system: Staphylococcus aureus; assay: Antibacterial activity against methicillin-resistant and vancomycin-intermediate resistant Staphylococcus aureus clinical isolate after 24 hrs by broth microdilution method; type: functional; settings: read-out: MIC
# [11] = test system: Staphylococcus aureus; assay: Antibacterial activity against Staphylococcus aureus Smith after 24 hrs by broth microdilution method; type: functional; settings: read-out: MIC
# [12] = test system: Enterococcus faecium; assay: Antibacterial activity against vancomycin A-resistant Enterococcus faecium clinical isolate after 24 hrs by broth microdilution method; type: functional; settings: read-out: MIC
# [13] = test system: Staphylococcus aureus; assay: Antibacterial activity against vancomycin-intermediate resistant Staphylococcus aureus clinical isolate in presence of 30% bovine serum after 24 hrs by broth microdilution method; type: functional
# [14] = test system: Staphylococcus aureus; assay: Antibacterial activity against Staphylococcus aureus Smith in presence of 30% bovine serum after 24 hrs by broth microdilution method; type: functional
# [15] = test system: Staphylococcus aureus; assay: Antibacterial activity against methicillin-resistant Staphylococcus aureus clinical isolate after 24 hrs by broth microdilution method; type: functional; settings: read-out: MIC
# [16] = Toxicity assessed as hemolysis in erythrocytes at 600 mg/L; type: cell-based, Erythrocyte; settings: human, read-out: Activity
# [17] = test system: Enterococcus faecium; assay: Antibacterial activity against Enterococcus faecium after 24 hrs by broth microdilution method; type: functional; settings: read-out: MIC
# [18] = test system: Enterococcus faecalis; assay: Antibacterial activity against vancomycin A-resistant Enterococcus faecalis after 24 hrs by broth microdilution method; type: functional; settings: read-out: MIC
# [19] = Toxicity assessed as hemolysis in erythrocytes at 200 mg/L; type: cell-based, Erythrocyte; settings: human, read-out: Activity
# [20] = Toxicity assessed as hemolysis in erythrocytes at 180 mg/L; type: cell-based, Erythrocyte; settings: human, erythrocytes; read-out: Activity
# [21] = Toxicity assessed as hemolysis in erythrocytes at 400 mg/L; type: cell-based, Erythrocyte; settings: human, read-out: Activity
# [22] = Toxicity assessed as hemolysis in erythrocytes at 100 mg/L; type: cell-based, Erythrocyte; settings: human, read-out: Activity
# [23] = Toxicity assessed as hemolysis in erythrocytes at 90 mg/L; type: cell-based, Erythrocyte; settings: human, erythrocytes; read-out: Activity
SMILES,MIC [1] [µg/mL],MIC [2] [µg/mL],MIC [3] [µg/mL],MIC [4] [µg/mL],MIC [5] [µg/mL],hemolysis at 1200 mg/L [6] [%],MIC [7] [µg/mL],hemolysis at 300 mg/L [8] [%],MIC [9] [µg/mL],MIC [10] [µg/mL],MIC [11] [µg/mL],MIC [12] [µg/mL],MIC [13] [µg/mL],MIC [14] [µg/mL],MIC [15] [µg/mL],hemolysis at 600 mg/L [16] [%],MIC [17] [µg/mL],MIC [18] [µg/mL],also measured
Cc1cccc(C)c1CC(=O)N[C@@H](CC(N)=O)C(=O)NC[C@@H]1C(=O)N[C@H](c2ccc(O)cc2)C(=O)N[C@H](CCCN)C(=O)N[C@H](C(C)C)C(=O)N[C@@H](c2ccc(O)cc2)C(=O)N[C@H](c2ccc(O)cc2)C(=O)N[C@@H]([C@@H](C)O)C(=O)N[C@@H](Cc2ccccc2)C(=O)N[C@H](CCCN)C(=O)N[C@@H](c2ccc(O[C@H]3O[C@H](CO)[C@@H](O)[C@H](O)[C@@H]3O[C@H]3O[C@H](CO)[C@@H](O)[C@H](O)[C@@H]3O)cc2)C(=O)N[C@H]([C@@H](C)O)C(=O)N[C@@H](c2ccc(O)cc2)C(=O)NCC(=O)N[C@@H](CC(C)C)C(=O)N[C@H](C)C(=O)N[C@@H](c2ccc(O)c(Cl)c2)C(=O)O[C@@H]1C(N)=O,≤ 0.125,> 128,0.25,4,> 128,43,1,0,≤ 0.125,1,≤ 0.125,0.25,2,0.5,≤ 0.125,13,0.5,–,–
CC(C)C[C@@H]1NC(=O)CNC(=O)[C@H](c2ccc(O)cc2)NC(=O)[C@@H]([C@@H](C)O)NC(=O)[C@H](c2ccc(O[C@H]3O[C@H](CO)[C@@H](O)[C@H](O)[C@@H]3O[C@H]3O[C@H](CO)[C@@H](O)[C@H](O)[C@@H]3O)cc2)NC(=O)[C@@H](CCCN)NC(=O)[C@H](Cc2ccccc2)NC(=O)[C@H]([C@@H](C)O)NC(=O)[C@@H](c2ccc(O)cc2)NC(=O)[C@H](c2ccc(O)cc2)NC(=O)[C@@H](C(C)C)NC(=O)[C@@H](CCCN)NC(=O)[C@@H](c2ccc(O)cc2)NC(=O)[C@@H](CNC(=O)[C@H](CC(N)=O)NC(=O)Cc2ccccc2[N+](=O)[O-])[C@@H](C(N)=O)OC(=O)[C@H](c2ccc(O)c(Cl)c2)NC(=O)[C@@H](C)NC1=O,≤ 0.125,> 128,2,8,> 128,0,2,1,2,4,0.5,2,4,1,1,0,4,1,–
CCc1ccccc1CC(=O)N[C@@H](CC(N)=O)C(=O)N[C@@H]1C(=O)N[C@H](c2ccc(O)cc2)C(=O)N[C@H](CCCN)C(=O)N[C@H]([C@@H](C)O)C(=O)N[C@@H](c2ccc(O)cc2)C(=O)N[C@H](c2ccc(O)cc2)C(=O)N[C@@H]([C@H](C)O)C(=O)N[C@@H](Cc2ccccc2)C(=O)N[C@H](CCCN)C(=O)N[C@@H](c2ccc(O[C@H]3O[C@H](CO)[C@@H](O)[C@H](O)[C@@H]3O[C@H]3O[C@H](CO)[C@@H](O)[C@H](O)[C@@H]3O)cc2)C(=O)N[C@H]([C@@H](C)O)C(=O)N[C@@H](c2ccc(O)cc2)C(=O)NCC(=O)N[C@@H](CC(C)C)C(=O)N[C@H](C)C(=O)N[C@@H](c2ccc(O)c(Cl)c2)C(=O)O[C@@H]1C(N)=O,–,–,–,–,–,76,–,1,–,–,–,–,–,–,–,1,–,–,–
Cc1cc(C)cc(CC(=O)N[C@@H](CC(N)=O)C(=O)NC[C@@H]2C(=O)N[C@H](c3ccc(O)cc3)C(=O)N[C@H](CCCN)C(=O)N[C@H](C(C)C)C(=O)N[C@@H](c3ccc(O)cc3)C(=O)N[C@H](c3ccc(O)cc3)C(=O)N[C@@H]([C@@H](C)O)C(=O)N[C@@H](Cc3ccccc3)C(=O)N[C@H](CCCN)C(=O)N[C@@H](c3ccc(O[C@H]4O[C@H](CO)[C@@H](O)[C@H](O)[C@@H]4O[C@H]4O[C@H](CO)[C@@H](O)[C@H](O)[C@@H]4O)cc3)C(=O)N[C@H]([C@@H](C)O)C(=O)N[C@@H](c3ccc(O)cc3)C(=O)NCC(=O)N[C@@H](CC(C)C)C(=O)N[C@H](C)C(=O)N[C@@H](c3ccc(O)c(Cl)c3)C(=O)O[C@@H]2C(N)=O)c1,≤ 0.125,> 128,0.5,2,> 128,87,1,0,≤ 0.125,1,≤ 0.125,≤ 0.125,4,1,≤ 0.125,18,0.25,–,–
CC(C)C[C@@H]1NC(=O)CNC(=O)[C@H](c2ccc(O)cc2)NC(=O)[C@@H]([C@@H](C)O)NC(=O)[C@H](c2ccc(O[C@H]3O[C@H](CO)[C@@H](O)[C@H](O)[C@@H]3O[C@H]3O[C@H](CO)[C@@H](O)[C@H](O)[C@@H]3O)cc2)NC(=O)[C@@H](CCCN)NC(=O)[C@H](Cc2ccccc2)NC(=O)[C@H]([C@@H](C)O)NC(=O)[C@@H](c2ccc(O)cc2)NC(=O)[C@H](c2ccc(O)cc2)NC(=O)[C@@H](C(C)C)NC(=O)[C@@H](CCCN)NC(=O)[C@@H](c2ccc(O)cc2)NC(=O)[C@@H](CNC(=O)[C@H](CC(N)=O)NC(=O)Cc2ccccc2C(F)(F)F)[C@@H](C(N)=O)OC(=O)[C@H](c2ccc(O)c(Cl)c2)NC(=O)[C@@H](C)NC1=O,≤ 0.125,> 128,1,2,> 128,51,0.5,3,≤ 0.125,2,≤ 0.125,0.25,4,1,≤ 0.125,5,0.5,–,–
CCCCCCCC(=O)N[C@@H](CC(N)=O)C(=O)NC[C@@H]1C(=O)N[C@H](c2ccc(O)cc2)C(=O)N[C@H](CCCN)C(=O)N[C@H](C(C)C)C(=O)N[C@@H](c2ccc(O)cc2)C(=O)N[C@H](c2ccc(O)cc2)C(=O)N[C@@H]([C@@H](C)O)C(=O)N[C@@H](Cc2ccccc2)C(=O)N[C@H](CCCN)C(=O)N[C@@H](c2ccc(O[C@H]3O[C@H](CO)[C@@H](O)[C@H](O)[C@@H]3O[C@H]3O[C@H](CO)[C@@H](O)[C@H](O)[C@@H]3O)cc2)C(=O)N[C@H]([C@@H](C)O)C(=O)N[C@@H](c2ccc(O)cc2)C(=O)NCC(=O)N[C@@H](CC(C)C)C(=O)N[C@H](C)C(=O)N[C@@H](c2ccc(O)c(Cl)c2)C(=O)O[C@@H]1C(N)=O.Cl,0.06,> 128,1,1,> 128,–,1,–,0.125,2,0.125,< 0.06,2,1,0.25,–,0.125,0.125,hemolysis at 200 mg/L [19]: 5%; hemolysis at 180 mg/L [20]: 16%; hemolysis at 400 mg/L [21]: 59%; hemolysis at 100 mg/L [22]: 0%; hemolysis at 90 mg/L [23]: 0%
